# PMC12037410, “Pharmacological targeting of BMAL1 modulates circadian and immune pathways” (Nature Chemical Biology, 2025)
# Residues, ends and D or L forms follow the SMILES beside them.
# Biological target: BMAL1 (Homo sapiens, UniProt O00327)
# Parameters: PASB domain (residues 338–449); Protein thermal shift (PTS) fragment screen on recombinant human BMAL1(PASB), shift of melting temperature
# Conditions: binder
# Sequence of BMAL1 (O00327 338-449): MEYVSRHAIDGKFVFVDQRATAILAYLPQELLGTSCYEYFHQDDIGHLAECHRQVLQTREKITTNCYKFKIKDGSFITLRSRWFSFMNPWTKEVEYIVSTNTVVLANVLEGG
row,SMILES,Bmal1(PASB) dTmB
1,"NCCc1ccc(S(N)(=O)=O)cc1 [Prestw-Frag-1076, Compound 338]",-0.53

# Same assay, conditions: dTmB; binder
row,SMILES,Bmal1(PASB) dTmB [°C]
1,"CC(=O)c1cc(Cl)ccc1O [Prestw-Frag-1083, Compound 280]",-0.22
2,"c1ccc(C(CCN2CCCCC2)c2ccccc2)cc1 [Prestw-Frag-1193, Compound 402]",-2.05
3,"Cc1cc(C(C)(C)CC(C)(C)C)ccc1O [Prestw-Frag-1016, Compound 351]",0.69
4,"Fc1ccc(CN2CCNCC2)cc1 [Prestw-Frag-3673, Compound 274]",-1.00
5,"N#CCC(=O)N1CCCCC1 [Prestw-Frag-3730, Compound 302]",0.12
6,"C(=C\c1ccccc1)/CN1CCNCC1 [Prestw-Frag-1163, Compound 295]",-0.92
7,"CNCCc1c[nH]c2ccccc12 [Prestw-Frag-1356, Compound 318]",-0.40
8,"Cn1ccc(=O)[nH]1 [Prestw-Frag-3664, Compound 92]",0.17
9,"Nc1cccc(O)c1 [Prestw-Frag-2826, Compound 83]",-0.56
10,"OCc1ccncc1 [Prestw-Frag-2303, Compound 179]",-0.35
11,"O=C(O)CCc1ccc(Cl)cc1 [Prestw-Frag-1126, Compound 340]",-0.19
12,"C[C@H](N)C(=O)N1CCC[C@H]1C(=O)O [Prestw-Frag-1275, Compound 264] (H-Ala-Pro-OH)",-0.70
13,"O=c1cc(O)c2ccccc2o1 [Prestw-Frag-1131, Compound 301]",0.28
14,"CCCCc1nc(Cl)c(CO)[nH]1 [Prestw-Frag-3114, Compound 336]",0.07
15,"S=c1[nH]c2ccccc2[nH]1 [Prestw-Frag-2539, Compound 1]",6.28
16,"COCCOC(=O)c1ccc(N)cc1 [Prestw-Frag-2453, Compound 317]",-0.58
17,"OC(c1ccccc1)c1ccc(Cl)cc1 (stereo not shown) [Prestw-Frag-1106, Compound 474]",-2.07
18,"N=C(N)CSCc1ccccc1 [Prestw-Frag-2348, Compound 201]",0.25
19,"CCNC(=O)c1ccc(Cl)cc1 [Prestw-Frag-2818, Compound 347]",-0.36
20,"CNC(=O)c1cnc(C)cn1 [Prestw-Frag-1350, Compound 286]",0.06
21,"COc1ccc(N)nn1 [Prestw-Frag-1167, Compound 140]",-0.58
22,"CNC(C)(C)Cc1ccccc1 [Prestw-Frag-1141, Compound 101]",-0.69
23,"CNS(=O)(=O)Cc1ccc2[nH]cc(CCN)c2c1 [Prestw-Frag-3017, Compound 50]",0.72
24,"Cc1ccc(N)c(C#N)c1 [Prestw-Frag-3060, Compound 394]",-0.18
25,"CC(O)(c1ccccc1)c1ccccc1 [Prestw-Frag-2235, Compound 444]",-1.59
26,"Cc1[nH]cnc1CO [Prestw-Frag-3752, Compound 153]",0.29
27,"O=C1CCc2ccc(O)cc2N1 [Prestw-Frag-2854, Compound 80]",-0.98
28,"Nc1ccccc1S(N)(=O)=O [Prestw-Frag-2473, Compound 242]",0.04
29,"OC(c1ccc(F)cc1)c1ccc(F)cc1 [Prestw-Frag-1924, Compound 461]",-1.89

# Same assay, conditions: dTmB; binder; Bmal1(PASB) dTmB
row,SMILES,Bmal1(PASB) dTmB [°C]
1,"CC1=NN(c2ccccc2)C(=O)C1 [Prestw-Frag-3742, Compound 81]",1.77
